From PubChem BioAssay (NCI)
Values joined by “and” are separate entries in the source; they are usually repeats but may differ in a detail not shown here. Equal entries are not always repeated.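 Five concentrations, 48 hours, 96-well plates. GI50: concentration for 50% inhibition of growth. Definition used: TGI = concentration required for complete inhibition of growth.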

Tests used:
Assay in all cases: inhibition of tumour cell growth, NCI panel, 48 h
A498 renal = tested on: A498 renal
BT-549 breast = tested on: BT-549 breast
COLO 205 colon = tested on: COLO 205 colon
EKVX NSCLC = tested on: EKVX NSCLC
NCI-H23 lung = tested on: NCI-H23 lung
SF-268 CNS = tested on: SF-268 CNS
SF-539 CNS = tested on: SF-539 CNS
SN12C renal = tested on: SN12C renal
SNB-19 CNS = tested on: SNB-19 CNS
UACC-257 melanoma = tested on: UACC-257 melanoma

Row | SMILES | GI50 (A498 renal) [µM] | TGI (A498 renal) [µM] | GI50 (BT-549 breast) [µM] | GI50 (COLO 205 colon) | TGI (COLO 205 colon) | GI50 (EKVX NSCLC) [µM] | TGI (EKVX NSCLC) [µM] | GI50 (NCI-H23 lung) [µM] | TGI (NCI-H23 lung) [µM] | GI50 (SF-268 CNS) [µM] | TGI (SF-268 CNS) [µM] | GI50 (SF-539 CNS) [µM] | TGI (SF-539 CNS) [µM] | GI50 (SN12C renal) [µM] | TGI (SN12C renal) [µM] | GI50 (SNB-19 CNS) [µM] | TGI (SNB-19 CNS) [µM] | GI50 (UACC-257 melanoma) [µM] | TGI (UACC-257 melanoma) [µM] | TGI (BT-549 breast) [µM]
1 | Cc1cc(Nc2ncc(Cl)c(Nc3ccccc3S(=O)(=O)C(C)C)n2)c(OC(C)C)cc1C1CCNCC1 | 1.88 | 6.83 | 4.47 | 0.312 µM and 0.332 µM | 1.39 µM and 1.28 µM | 1.14 | 2.71 | 1.51 | 3.07 | 1.61 | 3.38 | 1.62 | 2.99 | 1.76 | 3.29 | 1.73 | 3.14 | 1.24 | 2.81 | –
2 | Cc1cc(S(=O)(=O)/N=C(\N)n2nc(C)c(C)c2C)c(SCc2ccccc2)cc1Cl | > 100 | > 100 | > 100 | 74 µM | > 100 µM | 5.38 | > 100 | 7.04 | > 100 | > 100 | > 100 | > 100 | > 100 | > 100 | > 100 | > 100 | > 100 | 63.8 | > 100 | > 100
3 | COc1cc2c3c(n(CCCn4ccnc4)c(=O)c2cc1OC)-c1ccccc1C3=O | 0.0449 | 0.292 | 0.0623 | 0.0979 µM | – | 0.833 | > 100 | < 0.0282 | 0.0695 | < 0.0423 | > 100 | < 0.0373 | 0.441 | < 0.0467 | 5.4 | < 0.0285 | > 69 | – | 0.199 | 30.7
4 | N#C/C(=C\c1ccc(Cl)cc1)n1nnc2cc(F)c(F)cc21 | 1.28 | 2.66 | 1.74 | 2.18 µM | 4.83 µM | 1.67 | 3.12 | 1.73 | 3.71 | 1.98 | 4.45 | 1.97 | 3.77 | 1.89 | 4.02 | 1.82 | 3.78 | 2.14 | 5.58 | 3.43
5 | CCC[CH2][Sn]([CH2]CCC)([O]C(=O)c1cccc(F)c1F)[O][Sn]([CH2]CCC)([CH2]CCC)[O]C(=O)c1cccc(F)c1F | 0.202 | 0.526 | 0.121 | 0.288 µM | 0.969 µM | 0.675 | 2.04 | 0.0557 | 0.272 | 0.157 | 0.541 | 0.208 | 0.722 | 0.293 | 1.15 | 0.573 | 1.7 | 0.222 | 0.728 | 0.369
6 | O=C(c1cccs1)c1c(C(F)(F)F)n([O-])c2cc(C(F)(F)F)ccc2[n+]1=O | 0.96 | 2.6 | 0.188 | 0.174 µM | 0.362 µM | 0.251 | 0.625 | 0.348 | 1.27 | 0.163 | 0.334 | 0.195 | 0.409 | 0.2 | 0.408 | 0.348 | 0.707 | 0.662 | 1.82 | 0.367
7 | CCSc1nc(=S)[nH]c2[nH]ncc12 | 21.6 | 72.7 | > 100 | 38.1 µM | > 100 µM | 54.1 | > 100 | > 100 | > 100 | 51.9 | > 100 | 45.1 | > 100 | > 100 | > 100 | > 100 | > 100 | > 100 | > 100 | > 100
8 | N#Cc1c(SCc2ccccc2)nc2[nH]c(=S)[nH]c(=S)c2c1-c1ccco1 | 55.3 | > 100 | 21 | 41.2 µM | > 100 µM | 17 | > 100 | 28 | > 100 | 32.4 | > 100 | 31.7 | > 100 | 15.7 | 36.1 | 62.2 | > 100 | 66.5 | > 100 | > 100
9 | CCN(CC)CCCN1C(=O)c2c(c(C)c3c(oc4cc(O)ccc43)c2C)C1=O | 5.06 | 16.9 | 14.2 | 1.56 µM | 3.13 µM | 1.51 | 3.16 | 1.85 | 3.72 | 1.74 | 3.34 | 1.77 | 3.18 | 1.81 | 3.41 | 1.75 | 3.35 | 1.81 | 3.62 | 29.6
10 | C[C@]12CC[C@@H]3c4ccc(OCC(=O)O)cc4CC[C@H]3[C@@H]1CCC2=O | – | > 100 | – | – | > 100 µM | – | > 100 | – | > 100 | – | > 100 | – | > 100 | – | > 100 | – | > 100 | – | > 100 | > 100
11 | O=C1C=CC(=O)N1c1ccc2c(c1)Cc1cc(NC(=O)C(F)(F)F)ccc1-2 | – | 48.4 | – | – | 26 µM | – | 29.3 | – | 32.2 | – | 39.7 | – | 32.8 | – | 32.1 | – | > 65.5 | – | 35.8 | 31.6
12 | CN(C)c1ccc2[nH]c(O)c(C=Nc3ccc(S(N)(=O)=O)cc3)c2c1 | > 25 | > 25 | > 25 | 15.6 µM | > 25 µM | > 25 | > 25 | > 25 | > 25 | > 25 | > 25 | > 25 | > 25 | > 25 | > 25 | > 25 | > 25 | > 25 | > 25 | > 25
